Structures are written as SMILES. Converted amounts (≈) assume the structure as drawn.

Usually MIC stands for the lowest concentration that inhibits growth of the organism. Lower therefore signals inhibition by little substance.

Common to all, as to type: functional
One assay deals with Enterococcus faecalis. Put plainly: Antibacterial activity against Streptococcus faecalis SR 1004.
In a further assay the test system is Pseudomonas aeruginosa. The experiment in a line: Antibacterial activity against Pseudomonas aeruginosa SR24.
The test system of assay [1] is Staphylococcus aureus. The experiment in a line: Antibacterial activity against Staphylococcus aureus FDA JC-1.
The subject of the next assay is Escherichia coli. The experiment in a line: Antibacterial activity against Escherichia coli NIHJ JC-2.
The subject of the next assay is Serratia marcescens. Put plainly: Minimum inhibitory concentration for antibacterial activity against Serratia marcescens A13880.
For assay [2], the system named is Proteus vulgaris. Put plainly: Minimum inhibitory concentration for antibacterial activity against Proteus vulgaris CN-329, activity expressed as MIC.
The subject of assay [3] is Staphylococcus aureus. The experiment in a line: Minimum inhibitory concentration for antibacterial activity against low resistant group of methicillin-resistant Staphylococcus aureus SR-3131(LR).
Assay [4] concerns Staphylococcus aureus. The experiment in a line: Minimum inhibitory concentration for antibacterial activity against high resistant group of methicillin-resistant Staphylococcus aureus SR-3626(HR).
A further assay concerns Enterobacter cloacae. The experiment in a line: Minimum inhibitory concentration for antibacterial activity against Enterobacter cloacae AI 3047.
Assay [5] has as its system Proteus vulgaris. The experiment in a line: Minimum inhibitory concentration for antibacterial activity against Proteus vulgaris CN-329.

With `C[C@@H]([O-])[C@H]1C(=O)N2C(C(=O)[O-])=C(/C=C/C[N+]34CCC(CC3)CC4)[C@H](C)[C@H]12.[Na+]`, the MIC in the assay on Enterococcus faecalis turned out to be 0.8 µg/mL; in the assay with Pseudomonas aeruginosa, 50 µg/mL; with Staphylococcus aureus [1] it was 0.02 µg/mL; in the assay with Escherichia coli it was 0.2 µg/mL.
For `C[C@@H]([O-])[C@H]1C(=O)N2C(C(=O)[O-])=C(/C=C/Cn3cc[n+]4ccccc34)[C@H](C)[C@H]12.[Na+]`, in that order: 0.8 µg/mL, 25 µg/mL, 0.02 µg/mL and 0.1 µg/mL.
On the same counts, the results for `C[C@@H](O)[C@H]1C(=O)N2C(C(=O)[O-])=C(/C=C/c3cccc[n+]3C)[C@H](C)[C@H]12` are 6.3 µg/mL (≈ 19.2 µM), 50 µg/mL (≈ 152 µM), 0.1 µg/mL (≈ 0.305 µM) and 1.6 µg/mL (≈ 4.87 µM).
For `C/C(=C\C1=C(C(=O)[O-])N2C(=O)[C@H]([C@@H](C)O)[C@H]2[C@H]1C)C[n+]1ccccc1`, in that order: 0.8 µg/mL (≈ 2.34 µM), 6.3 µg/mL (≈ 18.4 µM), 0.02 µg/mL (≈ 0.0584 µM) and 0.1 µg/mL (≈ 0.292 µM).
On to `C[C@@H](O)[C@H]1C(=O)N2C(C(=O)[O-])=C(C[n+]3ccccc3)[C@H](C)[C@H]12`, for which the MIC against Enterococcus faecalis is 6.3 µg/mL (≈ 20.8 µM); against Serratia marcescens it was 1.6 µg/mL (≈ 5.29 µM); with Proteus vulgaris [2], 0.4 µg/mL (≈ 1.32 µM); with Staphylococcus aureus [3] it was 0.1 µg/mL (≈ 0.331 µM); in the assay with Pseudomonas aeruginosa, 1.6 µg/mL (≈ 5.29 µM); against Staphylococcus aureus [1], < 0.006 µg/mL. The values for the MIC against Escherichia coli, against Staphylococcus aureus [4] and in the assay with Enterobacter cloacae were 0.1 µg/mL (≈ 0.331 µM), 50 µg/mL (≈ 165 µM) and 0.2 µg/mL (≈ 0.662 µM), respectively.
Regarding `C[C@@H](O)[C@H]1C(=O)N2C(C(=O)[O-])=C(/C=C/COC(N)=O)[C@H](C)[C@H]12.[Na+]`, the MIC against Enterococcus faecalis is 1.6 µg/mL; with Pseudomonas aeruginosa it was 50 µg/mL; with Staphylococcus aureus [1], 0.02 µg/mL; in the assay with Escherichia coli it was 0.2 µg/mL.
On the same counts, the results for `C[C@@H](O)[C@H]1C(=O)N2C(C(=O)[O-])=C(C[n+]3cccc(N)c3)[C@H](C)[C@H]12` are 6.3 µg/mL (≈ 19.9 µM), 1.6 µg/mL (≈ 5.04 µM), 0.006 µg/mL (≈ 0.0189 µM) and 0.2 µg/mL (≈ 0.63 µM).
On the same counts, the results for `C[C@@H]([O-])[C@H]1C(=O)N2C(C(=O)[O-])=C(/C=C/CSc3cc[n+](C)cc3)[C@H](C)[C@H]12.[Na+]` are 0.4 µg/mL, 12.5 µg/mL, 0.01 µg/mL and 0.2 µg/mL.
In the case of `C[C@@H](O)[C@H]1C(=O)N2C(C(=O)[O-])=C(/C=C/C[n+]3ccccc3)[C@H](C)[C@H]12`, the MIC is 0.4 µg/mL (≈ 1.22 µM) in the assay on Enterococcus faecalis; 0.8 µg/mL (≈ 2.44 µM) against Serratia marcescens; 0.2 µg/mL (≈ 0.609 µM) with Proteus vulgaris [5]; 0.05 µg/mL (≈ 0.152 µM) with Staphylococcus aureus [3]; 1.6 µg/mL (≈ 4.87 µM) in the assay on Pseudomonas aeruginosa; 0.006 µg/mL (≈ 0.0183 µM) against Staphylococcus aureus [1]. The MIC against Escherichia coli amounted to 0.05 µg/mL (≈ 0.152 µM); against Staphylococcus aureus [4], 50 µg/mL (≈ 152 µM); with Enterobacter cloacae, 0.2 µg/mL (≈ 0.609 µM).
As to `C[C@@H](O)[C@H]1C(=O)N2C(C(=O)[O-])=C(C[n+]3ccc(C(N)=O)cc3)[C@H](C)[C@H]12`, the MIC came to 25 µg/mL (≈ 72.4 µM) against Enterococcus faecalis, 1.6 µg/mL (≈ 4.63 µM) in the assay on Pseudomonas aeruginosa, 0.02 µg/mL (≈ 0.0579 µM) against Staphylococcus aureus [1] and 0.4 µg/mL (≈ 1.16 µM) with Escherichia coli.
On to `C[C@@H](O)[C@H]1C(=O)N2C(C(=O)[O-])=C(/C=C/c3cc[n+](C)cc3)[C@H](C)[C@H]12`, for which the MIC was determined as 1.6 µg/mL (≈ 4.87 µM) against Enterococcus faecalis, 25 µg/mL (≈ 76.1 µM) against Pseudomonas aeruginosa, 0.05 µg/mL (≈ 0.152 µM) against Staphylococcus aureus [1] and 0.4 µg/mL (≈ 1.22 µM) with Escherichia coli.
For `C[C@@H](O)[C@H]1C(=O)N2C(C(=O)[O-])=C(C[n+]3ccc(-c4cnco4)cc3)[C@H](C)[C@H]12`, in that order: 6.3 µg/mL (≈ 17.1 µM), 1.6 µg/mL (≈ 4.33 µM), 0.01 µg/mL (≈ 0.0271 µM) and 0.2 µg/mL (≈ 0.541 µM).
`C[C@@H](O)[C@H]1C(=O)N2C(C(=O)[O-])=C(/C=C/CSc3nncs3)[C@H](C)[C@H]12.[Na+]`: the minimum inhibitory concentration (MIC) against Enterococcus faecalis is 1.6 µg/mL; in the assay with Pseudomonas aeruginosa, 100 µg/mL; against Staphylococcus aureus [1], 0.02 µg/mL; in the assay on Escherichia coli, 3.1 µg/mL.
For `C[C@@H](O)[C@H]1C(=O)N2C(C(=O)[O-])=C(C[n+]3cccc(C(N)=O)c3)[C@H](C)[C@H]12`, in that order: 25 µg/mL (≈ 72.4 µM), 1.6 µg/mL (≈ 4.63 µM), 0.02 µg/mL (≈ 0.0579 µM) and 0.4 µg/mL (≈ 1.16 µM).
On to `Cc1ccc[n+](CC2=C(C(=O)[O-])N3C(=O)[C@H]([C@@H](C)O)[C@H]3[C@H]2C)c1`, for which the MIC against Enterococcus faecalis turned out to be 12.5 µg/mL (≈ 39.5 µM); with Pseudomonas aeruginosa, 1.6 µg/mL (≈ 5.06 µM); with Staphylococcus aureus [1], 0.01 µg/mL (≈ 0.0316 µM); with Escherichia coli, 0.2 µg/mL (≈ 0.632 µM).
For `C[C@@H](O)[C@H]1C(=O)N2C(C(=O)[O-])=C(/C=C/c3ccc[n+](C)c3)[C@H](C)[C@H]12`, in that order: 0.2 µg/mL (≈ 0.609 µM), 25 µg/mL (≈ 76.1 µM), 0.01 µg/mL (≈ 0.0305 µM) and 0.1 µg/mL (≈ 0.305 µM).
Regarding `C[C@@H](O)[C@H]1C(=O)N2C(C(=O)O)=C(SCCNC=N)C[C@H]12` [IMIPENEM ANHYDROUS], the MIC is 1.6 µg/mL (≈ 5.34 µM) against Enterococcus faecalis; 0.8 µg/mL (≈ 2.67 µM) against Serratia marcescens; 0.4 µg/mL (≈ 1.34 µM) against Proteus vulgaris [5]; 0.05 µg/mL (≈ 0.167 µM) in the assay with Staphylococcus aureus [3]; 1.6 µg/mL (≈ 5.34 µM) in the assay with Pseudomonas aeruginosa; 0.006 µg/mL (≈ 0.02 µM) in the assay on Staphylococcus aureus [1]. In addition, the MIC with Escherichia coli stood at 0.1 µg/mL (≈ 0.334 µM); in the assay with Staphylococcus aureus [4], 50 µg/mL (≈ 167 µM); against Enterobacter cloacae, 0.4 µg/mL (≈ 1.34 µM).

Source of the values: ChEMBL document CHEMBL1151063, “Synthesis and antibacterial activity of 2-functionalized-vinyl 1-methylcarbapenems and related compounds” (1993).
